PubChem BioAssay (NCI)
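Where inhibition never reached the appropriate level, the endpoint shown equals the highest concentration tested. Otherwise, values were interpolated linearly from a five-concentration, 48-hour dose response in 96-well plates. GI50 marks 50% less growth. TGI: concentration producing complete growth inhibition.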

Key:
Experiment in all cases: NCI tumour cell line growth inhibition, 48 h
CCRF-CEM leukemia = tested on: CCRF-CEM leukemia
LOX IMVI melanoma = tested on: LOX IMVI melanoma
SF-295 CNS = tested on: SF-295 CNS
A498 renal = tested on: A498 renal
BT-549 breast = tested on: BT-549 breast
ACHN renal = tested on: ACHN renal
HOP-92 NSCLC = tested on: HOP-92 NSCLC
IGROV1 ovarian = tested on: IGROV1 ovarian
OVCAR-3 ovarian = tested on: OVCAR-3 ovarian
MDA-MB-435 = tested on: MDA-MB-435
SW-620 colon = tested on: SW-620 colon
UACC-62 melanoma = tested on: UACC-62 melanoma
UACC-257 melanoma = tested on: UACC-257 melanoma
A549 NSCLC = tested on: A549 NSCLC
KM12 colon = tested on: KM12 colon
MOLT-4 leukemia = tested on: MOLT-4 leukemia
786-0 renal = tested on: 786-0 renal
NCI-H522 lung = tested on: NCI-H522 lung
M14 melanoma = tested on: M14 melanoma
NCI-H460 lung = tested on: NCI-H460 lung
HCT-116 colon = tested on: HCT-116 colon
SNB-19 CNS = tested on: SNB-19 CNS
RPMI-8226 leukemia = tested on: RPMI-8226 leukemia
SK-OV-3 ovarian = tested on: SK-OV-3 ovarian
CAKI-1 renal = tested on: CAKI-1 renal
MDA-MB-231 breast = tested on: MDA-MB-231 breast
SN12C renal = tested on: SN12C renal
K-562 leukemia = tested on: K-562 leukemia
SNB-75 CNS = tested on: SNB-75 CNS
U251 CNS = tested on: U251 CNS
PC-3 prostate = tested on: PC-3 prostate
TK-10 renal = tested on: TK-10 renal
DU-145 prostate = tested on: DU-145 prostate
SK-MEL-28 melanoma = tested on: SK-MEL-28 melanoma
OVCAR-4 ovarian = tested on: OVCAR-4 ovarian
HS 578T breast = tested on: HS 578T breast
HOP-62 NSCLC = tested on: HOP-62 NSCLC
MCF7 breast = tested on: MCF7 breast
SF-539 CNS = tested on: SF-539 CNS
T-47D breast = tested on: T-47D breast
OVCAR-5 ovarian = tested on: OVCAR-5 ovarian
HCC-2998 colon = tested on: HCC-2998 colon
HCT-15 colon = tested on: HCT-15 colon
SK-MEL-2 melanoma = tested on: SK-MEL-2 melanoma
COLO 205 colon = tested on: COLO 205 colon
NCI-H23 lung = tested on: NCI-H23 lung
UO-31 renal = tested on: UO-31 renal
EKVX NSCLC = tested on: EKVX NSCLC
OVCAR-8 ovarian = tested on: OVCAR-8 ovarian
NCI-H226 lung = tested on: NCI-H226 lung
RXF 393 renal = tested on: RXF 393 renal
SK-MEL-5 melanoma = tested on: SK-MEL-5 melanoma
SF-268 CNS = tested on: SF-268 CNS
MALME-3M melanoma = tested on: MALME-3M melanoma
HT29 colon = tested on: HT29 colon

Compound: CC1SC2(CCCCC2)N(NC(=O)c2[nH]c3ccc(Br)cc3c2-c2ccccc2)C1=O (stereo not given)
- GI50 (CCRF-CEM leukemia): 7 µM
- TGI (CCRF-CEM leukemia): > 100 µM
- GI50 (LOX IMVI melanoma): 92.7 µM
- TGI (LOX IMVI melanoma): > 100 µM
- GI50 (SF-295 CNS): 10.7 µM
- TGI (SF-295 CNS): 46.7 µM
- GI50 (A498 renal): > 100 µM
- TGI (A498 renal): > 100 µM
- GI50 (BT-549 breast): > 100 µM
- TGI (BT-549 breast): > 100 µM
- GI50 (ACHN renal): 61.3 µM
- TGI (ACHN renal): > 100 µM
- GI50 (HOP-92 NSCLC): 14.6 µM
- TGI (HOP-92 NSCLC): 64.8 µM
- GI50 (IGROV1 ovarian): 4.02 µM
- TGI (IGROV1 ovarian): 28.4 µM
- GI50 (OVCAR-3 ovarian): 3.24 µM
- TGI (OVCAR-3 ovarian): 20.9 µM
- GI50 (MDA-MB-435): 30.1 µM
- TGI (MDA-MB-435): > 100 µM
- GI50 (SW-620 colon): > 100 µM
- TGI (SW-620 colon): > 100 µM
- GI50 (UACC-62 melanoma): 9.66 µM
- TGI (UACC-62 melanoma): > 100 µM
- GI50 (UACC-257 melanoma): 23.6 µM
- TGI (UACC-257 melanoma): > 100 µM
- GI50 (A549 NSCLC): 15.7 µM
- TGI (A549 NSCLC): > 100 µM
- GI50 (KM12 colon): 16.1 µM
- TGI (KM12 colon): > 100 µM
- GI50 (MOLT-4 leukemia): 3.95 µM
- TGI (MOLT-4 leukemia): > 100 µM
- GI50 (786-0 renal): 17.5 µM
- TGI (786-0 renal): 98.4 µM
- GI50 (NCI-H522 lung): 6.78 µM
- TGI (NCI-H522 lung): > 100 µM
- GI50 (M14 melanoma): 64 µM
- TGI (M14 melanoma): > 100 µM
- GI50 (NCI-H460 lung): 48.2 µM
- TGI (NCI-H460 lung): > 100 µM
- GI50 (HCT-116 colon): 10.2 µM
- TGI (HCT-116 colon): > 100 µM
- GI50 (SNB-19 CNS): 40.8 µM
- TGI (SNB-19 CNS): > 100 µM
- GI50 (RPMI-8226 leukemia): 3.83 µM
- TGI (RPMI-8226 leukemia): 30.2 µM
- GI50 (SK-OV-3 ovarian): > 100 µM
- TGI (SK-OV-3 ovarian): > 100 µM
- GI50 (CAKI-1 renal): 62.5 µM
- TGI (CAKI-1 renal): > 100 µM
- GI50 (MDA-MB-231 breast): 20.4 µM
- TGI (MDA-MB-231 breast): 79.6 µM
- GI50 (SN12C renal): 4.66 µM
- TGI (SN12C renal): 30.6 µM
- GI50 (K-562 leukemia): 6.78 µM
- TGI (K-562 leukemia): > 100 µM
- GI50 (SNB-75 CNS): 22.6 µM
- TGI (SNB-75 CNS): 90 µM
- GI50 (U251 CNS): 41.3 µM
- TGI (U251 CNS): > 100 µM
- GI50 (PC-3 prostate): 7.45 µM
- TGI (PC-3 prostate): 89.2 µM
- GI50 (TK-10 renal): 26.2 µM
- TGI (TK-10 renal): > 100 µM
- GI50 (DU-145 prostate): > 100 µM
- TGI (DU-145 prostate): > 100 µM
- GI50 (SK-MEL-28 melanoma): 56.2 µM
- TGI (SK-MEL-28 melanoma): > 100 µM
- GI50 (OVCAR-4 ovarian): 13.2 µM
- TGI (OVCAR-4 ovarian): 90.7 µM
- GI50 (HS 578T breast): 70.7 µM
- TGI (HS 578T breast): > 100 µM
- GI50 (HOP-62 NSCLC): 37 µM
- TGI (HOP-62 NSCLC): > 100 µM
- GI50 (MCF7 breast): 20.5 µM
- TGI (MCF7 breast): > 100 µM
- GI50 (SF-539 CNS): > 100 µM
- TGI (SF-539 CNS): > 100 µM
- GI50 (T-47D breast): 20.5 µM
- TGI (T-47D breast): > 100 µM
- GI50 (OVCAR-5 ovarian): 58.7 µM
- TGI (OVCAR-5 ovarian): > 100 µM
- GI50 (HCC-2998 colon): > 100 µM
- TGI (HCC-2998 colon): > 100 µM
- GI50 (HCT-15 colon): > 100 µM
- TGI (HCT-15 colon): > 100 µM
- GI50 (SK-MEL-2 melanoma): > 100 µM
- TGI (SK-MEL-2 melanoma): > 100 µM
- GI50 (COLO 205 colon): > 100 µM
- TGI (COLO 205 colon): > 100 µM
- GI50 (NCI-H23 lung): 30.7 µM
- TGI (NCI-H23 lung): > 100 µM
- GI50 (UO-31 renal): 21.6 µM
- TGI (UO-31 renal): > 100 µM
- GI50 (EKVX NSCLC): > 100 µM
- TGI (EKVX NSCLC): > 100 µM
- GI50 (OVCAR-8 ovarian): 17 µM
- TGI (OVCAR-8 ovarian): 53.8 µM
- GI50 (NCI-H226 lung): 40.7 µM
- TGI (NCI-H226 lung): > 100 µM
- GI50 (RXF 393 renal): 13.7 µM
- TGI (RXF 393 renal): 69.2 µM
- GI50 (SK-MEL-5 melanoma): > 100 µM
- TGI (SK-MEL-5 melanoma): > 100 µM
- GI50 (SF-268 CNS): 75.6 µM
- TGI (SF-268 CNS): > 100 µM
- GI50 (MALME-3M melanoma): 17.2 µM
- TGI (MALME-3M melanoma): 59.3 µM
- GI50 (HT29 colon): 8.1 µM
- TGI (HT29 colon): > 100 µM
